# Assay results as given in US10253368B2, “Molecular signatures of ovarian cancer” (Cedars-Sinai Medical Center, priority 2012, dated 2019).
# What was measured:
# [1] = system: ovarian stromal cell line TRS3; test: TGFβ1 induction of the 10 poor outcome signature genes (mRNA) in TRS3 cells; assay type: cell-based, human
# Excerpt: FIG. 13(A) to FIG. 13(C). Regulation of the poor outcome signature genes by TGFβ signaling. (A) Ingenuity Pathway Analysis of the 61 genes present in at least two of the three discovery signatures of poor outcome. Genes that are present in all three discovery signatures are circled in red. (B) Top upstream regulators of the 61 poor outcome genes. (C) Induction of the 10 poor outcome signature genes by TGFβ1 in the ovarian stromal cell line TRS3 and the ovarian cancer cell line OVCAR3. Cells were treated with TGFβ1 (10 ng/ml) for 48 hours (TRS3) or 1-3 hours (OVCAR3) with or without pre-treatment with the TGFβ1 receptor inhibitor, A83-01. Shown is the relative fold change of the mRNA levels compared to untreated control cells. […]
# (§1) To validate the predicted regulation of the poor outcome genes by TGFβ1, the Inventors treated the human ovarian stromal cell line TRS3 and the ovarian cancer cell line OVCAR3 with TGFβ1 and measured mRNA expression of the 10 poor outcome genes before and after TGFβ1 treatment.
# (§2) Importantly, The Inventors included the ovarian stromal cell line since many of our poor outcome genes are thought to be expressed in stromal cells. […] To further validate that this induction was mediated by TGFβ1 signaling, the Inventors measured expression of the 10 genes in cells pre-treated with the TGFβ1 receptor inhibitor A83-01 before adding TGFβ1.
# [2] = system: ovarian cancer cell line OVCAR3; test: TGFβ1 induction of the 10 poor outcome signature genes (mRNA) in OVCAR3 cells; assay type: cell-based, human
# Excerpt: FIG. 13(A) to FIG. 13(C). Regulation of the poor outcome signature genes by TGFβ signaling. (A) Ingenuity Pathway Analysis of the 61 genes present in at least two of the three discovery signatures of poor outcome. Genes that are present in all three discovery signatures are circled in red. (B) Top upstream regulators of the 61 poor outcome genes. (C) Induction of the 10 poor outcome signature genes by TGFβ1 in the ovarian stromal cell line TRS3 and the ovarian cancer cell line OVCAR3. Cells were treated with TGFβ1 (10 ng/ml) for 48 hours (TRS3) or 1-3 hours (OVCAR3) with or without pre-treatment with the TGFβ1 receptor inhibitor, A83-01. Shown is the relative fold change of the mRNA levels compared to untreated control cells. Data are presented as the mean+/−SEM in triplicate samples. * indicates P<0.05. Data are representative of at least three independent experiments.
# FIG. 26. Induction of the 10 poor outcome signature genes by TGFβ1. OVCAR3 (OV3) cells were treated with 10 ng/ml TGFβ1 (B1) for either 1 hour or 3 hours with (OV3+B1+A) or without (OV3+B1) pre-treatment with the TGFβ inhibitor, A83-01.
# as §1, §2
# To learn more about the possible upstream regulators of the signature genes, the Inventors applied Ingenuity Pathway Analysis to the 61 signature genes in FIG. 12A and identified TGFβ1, TGFβ2, TGFβ3, SMAD3, and SMAD7 as top transcription factors regulating in expression of the signature genes.
# [3] = system: TGFβ; settings: mouse xenografts; cited from earlier work
# [4] = system: LOX; settings: xenograft and transgenic mouse models; cited from earlier work
# [5] = system: ADAM12 mRNA in TRS3 cells; test: Quantitative real-time PCR of ADAM12 mRNA in TRS3 cells with recombinant TGFβ1; assay type: cell-based, human; settings: recombinant TGFβ1 10 ng/ml, 48 hours
# Excerpt: FIG. 37(A) to FIG. 37(C). ADAM12 expression in epithelial and stromal cells in patient tumors and different culture conditions. (A) Representative localization of ADAM12 protein (immunohistochemistry; brown staining) and mRNA (in situ hybridization; brown dots) in ovarian tumor sections from HGSOC patients. Size bar for both photographs=50 μm. (B) and (C) Quantitative real-time PCR of the ADAM12 mRNA in the TRS3 ovarian stromal cell line and OVCAR3 ovarian cancer cell line alone or in co-culture in the presence or absence of 10 ng/ml of recombinant TGFβ1. TRS3 stromal cells and GFP-labelled OVCAR3 cancer cells were co-cultured using an insert (insert) or in direct contact (direct) for 48 hours and sorted by FACS before RNA isolation. The top cell line on the x axis represents the cell line from which RNA was isolated. The y axis indicates 2^−ΔCt value. Data indicates mean+/−SEM.
# The OVCAR3 ovarian cancer cell line was obtained from Dennis Slamon (University of California, Los Angeles) and its authenticity was confirmed by Laragen using the short tandem repeat (STR) method. […]
# Total RNA was extracted using the RNeasy mini kit (Qiagen) and was reverse-transcribed to cDNA using the QuantiTect Reverse Transcription Kit (Qiagen). […] The qRT-PCR reaction was performed using an iCycler thermo cycler (Bio Rad) and the data were analyzed by the 2-ΔCT method. […]
# [6] = system: osteosarcoma; settings: mouse model of osteosarcoma; cited from earlier work
# [7] = pre-treatment before TGFβ1 10 ng/ml
compound,measurement,setting,value
"Cc1cccc(-c2nn(C(=S)Nc3ccccc3)cc2-c2ccnc3ccccc23)n1 [A83-01, reference compound]",TGFβ1-induced expression of the 10 genes in cells pre-treated with inhibitor,[1]; [7],abrogated
same,TGFβ1-induced expression of the 10 genes in cells pre-treated with inhibitor,[2]; [7],abrogated
same,Tumor growth,[3],reduce tumor growth
N#CCCN [β-aminopropionitrile],Tumor metastasis,[4],inhibited
"TGFβ1: recombinant TGFβ1 (Sigma), growth factor used at 10 ng/ml",mRNA expression of the 10 poor outcome genes after TGFβ1 treatment,"[1]; TGFβ1 10 ng/ml, 48 hours, most of the 10 genes",induced
same,mRNA expression of the 10 poor outcome genes after TGFβ1 treatment,"[2]; TGFβ1 10 ng/ml, 1-3 hours, most of the 10 genes",induced
same,Expression of COL5A1 and SNAI2,[2]; after 1 hour of treatment with TGFβ1,markedly induced
same,Expression of the remaining 8 genes,[2]; after 3 hours of treatment with TGFβ1,induced
same,Increase of ADAM12 levels in TRS3 cells,[5],approximately 10 fold
collagenase,Uptake and distribution of monoclonal antibodies,[6],increased
